Measurements from patent US9149538B2, “Oligomer conjugates of heteropentacyclic nucleosides” (priority 2008, dated 2015).
Like-named read-outs stand apart in the source and are kept apart here.

Experiments:
BVDV NADL = assay: Anti-Bovine Diarrhea Virus (surrogate Hepatitis C) cytoprotection assay (XTT) in MDBK cells; format: cell-based, Bovine Viral Diarrhea virus; details: inhibition of virus-induced cell killing, 100 μM high test concentration
[1] = test system: Influenza A/Hong Kong/8/68; assay: microbe, parasite or virus in culture; format: cell-based, influenza type A
MDBK cells = details: read-out: TC50, cells plus drug only, XTT
in vitro = details: dog

Structure (SMILES)	EC50 (BVDV NADL) [µM]	EC50 ([1]; read-out: EC50) [µM]	CC50 (MDBK cells) [µM]	CC50 (MDCK cells) [µM]	CC50 (in vitro; TC50) [µM]	EC50 (BVDV NADL; Bovine viral diarrhea virus isolates and strains, MDBK) [µM]	EC50 [1] [µM]	EC50 ([1]; Influenza A virus, MDCK) [µM]	CC50 (MDCK cells; dog) [µM]	CC50 (in vitro; TC50, MDCK cells, cells plus drug only, XTT) [µM]	EC50 ([1]; Influenza A virus, MDCK, MDCK/Influenza A/Hong Kong/8/68, inhibition of virus-induced cell killing, XTT, 100 μM high test concentration, read-out: EC50) [µM]
COCCOCCOCCOCCOCCOCCNC(=N)c1ncn([C@@H]2O[C@H](CO)[C@@H](O)[C@H]2O)n1 [mPEG6-N-Ribamidine]	> 100	> 100	87.6	> 100							
COCCOCCOCCOCCOCCOCCOCCN(CCOCCOCCOCCOCCOCCOCCOC)C(=O)c1ncn([C@@H]2O[C@H](CO)[C@@H](O)[C@H]2O)n1 [Di-mPEG7-N-Ribavirin]	> 100	> 100	> 100	> 100							
NC(=O)c1ncn([C@@H]2O[C@H](CO)[C@@H](O)[C@H]2O)n1 [Ribavirin, ribavirin, reference compound]	5.2				50	8.1	16.3	18.2	79		
COCCOCCOCCOCCOCCOCCOCCNC(=N)c1ncn([C@@H]2O[C@H](CO)[C@@H](O)[C@H]2O)n1 [mPEG7-N-Ribamidine]	> 100	> 100	> 100	> 100							
COCCOCCOCCOCCOCCNC(=O)c1ncn([C@@H]2O[C@H](CO)[C@@H](O)[C@H]2O)n1 [mPEG5-N-Ribavirin]	> 100	> 100	> 100	> 100							
NC12CC3CC(CC(C3)C1)C2 [Amantadine, amantadine, reference compound]										> 10	0.1
COCCOCCOCCOCCOCCN(CCOCCOCCOCCOCCOC)C(=O)c1ncn([C@@H]2O[C@H](CO)[C@@H](O)[C@H]2O)n1 [Di-mPEG5-N-Ribavirin]	> 100	5.5	> 100	19.5							
COCCOCCOCCNC(=N)c1ncn([C@@H]2O[C@H](CO)[C@@H](O)[C@H]2O)n1 [mPEG3-N-Ribamidine]	> 100	67.8	> 100	> 100							
